Results from ChEMBL document CHEMBL3885861, “Open TG-GATES”.

Species on record: Rattus norvegicus
Assay: Open TG-GATES - Regimen: Single
Assay type: toxicity, organism-based, Sprague-Dawley
Parameters: regimen Single, gender Male, age 6 weeks
Details: in vivo, po, 0 mg/kg, route gavage, dose level Control; for APTT / Bas / Eos / Fbg / Hb / Ht / Lym / MCH / MCHC / MCV / Mono / Neu / PT / Plat / RBC / Ret / WBC: tissue Blood; for KIDNEY_L / KIDNEY_R / KIDNEY_TOTAL: tissue Kidney; for LIVER: tissue Liver; for A/G / ALP / ALT / AST / BUN / CRE / Ca / Cl / DBIL / GLC / IP / K / LDH / Na / PL / RALB / TBIL / TC / TG / TP / gamma-GTP: tissue Plasma

Question: With Cc1ccc(C)c(OCCCC(C)(C)C(=O)O)c1 [GEMFIBROZIL] as the molecule, how does the TERMINAL_BW (3 h) read?
Answer: 223.7 g

Question: And the APTT (3 h)?
Answer: 16.9 s

Question: And the Bas (3 h)?
Answer: 0%

Question: What about the Eos (3 h) of the same molecule?
Answer: 0.6%

Question: And the Fbg (3 h)?
Answer: 276.4 mg/dL

Question: And the Hb (3 h)?
Answer: 14 g/dL

Question: What about the Ht (3 h) of the same molecule?
Answer: 40.2%

Question: What about the Lym (3 h) of the same molecule?
Answer: 81.2%

Question: And the MCH (3 h)?
Answer: 22.6 pg

Question: And the MCHC (3 h)?
Answer: 34.9%

Question: And the MCV (3 h)?
Answer: 64.7 fL

Question: And the Mono (3 h)?
Answer: 2.8%

Question: And the Neu (3 h)?
Answer: 14.6%

Question: What about the PT (3 h) of the same molecule?
Answer: 12.3 s

Question: What about the Plat (3 h) of the same molecule?
Answer: 124.4 x10_4/uL

Question: And the RBC (3 h)?
Answer: 621.6 x10_4/ul

Question: And the Ret (3 h)?
Answer: 8%

Question: What about the WBC (3 h) of the same molecule?
Answer: 76.9 x10_2/uL

Question: And the KIDNEY_L (3 h)?
Answer: 1 g

Question: What about the KIDNEY_R (3 h) of the same molecule?
Answer: 0.9 g

Question: And the KIDNEY_TOTAL (3 h)?
Answer: 1.9 g

Question: What about the LIVER (3 h) of the same molecule?
Answer: 9.8 g

Question: And the A/G (3 h)?
Answer: 0.9

Question: What about the ALP (3 h) of the same molecule?
Answer: 1456 IU/L

Question: What about the ALT (3 h) of the same molecule?
Answer: 45.2 IU/L

Question: And the AST (3 h)?
Answer: 71.2 IU/L

Question: What about the BUN (3 h) of the same molecule?
Answer: 12.6 mg/dL

Question: And the CRE (3 h)?
Answer: 0.2 mg/dL

Question: And the Ca (3 h)?
Answer: 11.3 mg/dL

Question: What about the Cl (3 h) of the same molecule?
Answer: 105 meq/L

Question: What about the DBIL (3 h) of the same molecule?
Answer: 0.046 mg/dL

Question: And the GLC (3 h)?
Answer: 180.6 mg/dL

Question: And the IP (3 h)?
Answer: 10.4 mg/dL

Question: And the K (3 h)?
Answer: 4.2 meq/L

Question: And the LDH (3 h)?
Answer: 74 IU/L

Question: And the Na (3 h)?
Answer: 140.2 meq/L

Question: What about the PL (3 h) of the same molecule?
Answer: 179.2 mg/dL

Question: And the RALB (3 h)?
Answer: 2.6 g/dL

Question: And the TBIL (3 h)?
Answer: 0.052 mg/dL

Question: What about the TC (3 h) of the same molecule?
Answer: 86.4 mg/dL

Question: What about the TG (3 h) of the same molecule?
Answer: 155.8 mg/dL

Question: What about the TP (3 h) of the same molecule?
Answer: 5.6 g/dL

Question: What about the gamma-GTP (3 h) of the same molecule?
Answer: 1 IU/L

Question: And the TERMINAL_BW (6 h)?
Answer: 221.6 g

Question: And the APTT (6 h)?
Answer: 16.7 s

Question: What about the Bas (6 h) of the same molecule?
Answer: 0%

Question: And the Eos (6 h)?
Answer: 0.8%

Question: What about the Fbg (6 h) of the same molecule?
Answer: 299 mg/dL

Question: What about the Hb (6 h) of the same molecule?
Answer: 13.9 g/dL

Question: And the Ht (6 h)?
Answer: 40.6%

Question: What about the Lym (6 h) of the same molecule?
Answer: 75.4%

Question: What about the MCH (6 h) of the same molecule?
Answer: 21.4 pg

Question: And the MCHC (6 h)?
Answer: 34.3%

Question: And the MCV (6 h)?
Answer: 62.5 fL

Question: And the Mono (6 h)?
Answer: 3.6%

Question: And the Neu (6 h)?
Answer: 19.2%

Question: And the PT (6 h)?
Answer: 12.1 s

Question: What about the Plat (6 h) of the same molecule?
Answer: 127 x10_4/uL

Question: What about the RBC (6 h) of the same molecule?
Answer: 649.8 x10_4/ul

Question: And the Ret (6 h)?
Answer: 7.3%

Question: What about the WBC (6 h) of the same molecule?
Answer: 71.6 x10_2/uL

Question: What about the KIDNEY_L (6 h) of the same molecule?
Answer: 0.9 g

Question: And the KIDNEY_R (6 h)?
Answer: 0.9 g

Question: What about the KIDNEY_TOTAL (6 h) of the same molecule?
Answer: 1.8 g

Question: What about the LIVER (6 h) of the same molecule?
Answer: 9.1 g

Question: What about the A/G (6 h) of the same molecule?
Answer: 0.9

Question: What about the ALP (6 h) of the same molecule?
Answer: 1398 IU/L

Question: What about the ALT (6 h) of the same molecule?
Answer: 43 IU/L

Question: And the AST (6 h)?
Answer: 70.6 IU/L

Question: And the BUN (6 h)?
Answer: 9.6 mg/dL

Question: What about the CRE (6 h) of the same molecule?
Answer: 0.2 mg/dL

Question: And the Ca (6 h)?
Answer: 11.1 mg/dL

Question: And the Cl (6 h)?
Answer: 107.4 meq/L

Question: And the DBIL (6 h)?
Answer: 0.024 mg/dL

Question: What about the GLC (6 h) of the same molecule?
Answer: 183 mg/dL

Question: And the IP (6 h)?
Answer: 10.9 mg/dL

Question: And the K (6 h)?
Answer: 4.3 meq/L

Question: What about the LDH (6 h) of the same molecule?
Answer: 60.8 IU/L

Question: And the Na (6 h)?
Answer: 141.6 meq/L

Question: And the PL (6 h)?
Answer: 156 mg/dL

Question: And the RALB (6 h)?
Answer: 2.7 g/dL

Question: What about the TBIL (6 h) of the same molecule?
Answer: 0.046 mg/dL

Question: What about the TC (6 h) of the same molecule?
Answer: 86.2 mg/dL

Question: And the TG (6 h)?
Answer: 71.2 mg/dL

Question: And the TP (6 h)?
Answer: 5.6 g/dL

Question: And the gamma-GTP (6 h)?
Answer: 1.4 IU/L

Question: And the TERMINAL_BW (9 h)?
Answer: 223.1 g

Question: What about the APTT (9 h) of the same molecule?
Answer: 15.5 s

Question: And the Bas (9 h)?
Answer: 0%

Question: And the Eos (9 h)?
Answer: 1%

Question: And the Fbg (9 h)?
Answer: 302.2 mg/dL

Question: And the Hb (9 h)?
Answer: 14 g/dL

Question: What about the Ht (9 h) of the same molecule?
Answer: 41%

Question: And the Lym (9 h)?
Answer: 80%

Question: And the MCH (9 h)?
Answer: 21.6 pg

Question: And the MCHC (9 h)?
Answer: 34.1%

Question: What about the MCV (9 h) of the same molecule?
Answer: 63.4 fL

Question: What about the Mono (9 h) of the same molecule?
Answer: 2.6%

Question: And the Neu (9 h)?
Answer: 15.8%

Question: And the PT (9 h)?
Answer: 12.3 s

Question: What about the Plat (9 h) of the same molecule?
Answer: 110.9 x10_4/uL

Question: And the RBC (9 h)?
Answer: 646.6 x10_4/ul

Question: And the Ret (9 h)?
Answer: 7.6%

Question: And the WBC (9 h)?
Answer: 69.8 x10_2/uL

Question: What about the KIDNEY_L (9 h) of the same molecule?
Answer: 0.9 g

Question: And the KIDNEY_R (9 h)?
Answer: 0.9 g

Question: What about the KIDNEY_TOTAL (9 h) of the same molecule?
Answer: 1.8 g

Question: What about the LIVER (9 h) of the same molecule?
Answer: 8.6 g

Question: What about the A/G (9 h) of the same molecule?
Answer: 0.9

Question: What about the ALP (9 h) of the same molecule?
Answer: 1255.2 IU/L

Question: What about the ALT (9 h) of the same molecule?
Answer: 36.6 IU/L

Question: What about the AST (9 h) of the same molecule?
Answer: 65.4 IU/L

Question: What about the BUN (9 h) of the same molecule?
Answer: 12 mg/dL

Question: And the CRE (9 h)?
Answer: 0.2 mg/dL

Question: What about the Ca (9 h) of the same molecule?
Answer: 11.1 mg/dL

Question: What about the Cl (9 h) of the same molecule?
Answer: 107 meq/L

Question: What about the DBIL (9 h) of the same molecule?
Answer: 0.02 mg/dL

Question: And the GLC (9 h)?
Answer: 194.2 mg/dL

Question: What about the IP (9 h) of the same molecule?
Answer: 11.9 mg/dL

Question: What about the K (9 h) of the same molecule?
Answer: 4 meq/L

Question: And the LDH (9 h)?
Answer: 58 IU/L

Question: What about the Na (9 h) of the same molecule?
Answer: 143.4 meq/L

Question: What about the PL (9 h) of the same molecule?
Answer: 150.2 mg/dL

Question: What about the RALB (9 h) of the same molecule?
Answer: 2.6 g/dL

Question: And the TBIL (9 h)?
Answer: 0.046 mg/dL

Question: What about the TC (9 h) of the same molecule?
Answer: 82.2 mg/dL

Question: And the TG (9 h)?
Answer: 60.4 mg/dL

Question: And the TP (9 h)?
Answer: 5.4 g/dL

Question: What about the gamma-GTP (9 h) of the same molecule?
Answer: 1.2 IU/L

Question: What about the TERMINAL_BW (24 h) of the same molecule?
Answer: 226.6 g

Question: And the APTT (24 h)?
Answer: 14.7 s

Question: And the Bas (24 h)?
Answer: 0%

Question: What about the Eos (24 h) of the same molecule?
Answer: 0.8%

Question: What about the Fbg (24 h) of the same molecule?
Answer: 286 mg/dL

Question: And the Hb (24 h)?
Answer: 13.5 g/dL

Question: What about the Ht (24 h) of the same molecule?
Answer: 38.9%

Question: What about the Lym (24 h) of the same molecule?
Answer: 78.2%

Question: And the MCH (24 h)?
Answer: 21.7 pg

Question: And the MCHC (24 h)?
Answer: 34.7%

Question: What about the MCV (24 h) of the same molecule?
Answer: 62.6 fL

Question: And the Mono (24 h)?
Answer: 2.6%

Question: What about the Neu (24 h) of the same molecule?
Answer: 17.8%

Question: What about the PT (24 h) of the same molecule?
Answer: 12 s

Question: What about the Plat (24 h) of the same molecule?
Answer: 117.7 x10_4/uL

Question: What about the RBC (24 h) of the same molecule?
Answer: 621.8 x10_4/ul

Question: And the Ret (24 h)?
Answer: 6.6%

Question: And the WBC (24 h)?
Answer: 87.1 x10_2/uL

Question: What about the KIDNEY_L (24 h) of the same molecule?
Answer: 1 g

Question: What about the KIDNEY_R (24 h) of the same molecule?
Answer: 0.9 g

Question: What about the KIDNEY_TOTAL (24 h) of the same molecule?
Answer: 1.9 g

Question: What about the LIVER (24 h) of the same molecule?
Answer: 10.2 g

Question: And the A/G (24 h)?
Answer: 1

Question: And the ALP (24 h)?
Answer: 1725.4 IU/L

Question: What about the ALT (24 h) of the same molecule?
Answer: 48 IU/L

Question: What about the AST (24 h) of the same molecule?
Answer: 74.6 IU/L

Question: What about the BUN (24 h) of the same molecule?
Answer: 16.2 mg/dL

Question: What about the CRE (24 h) of the same molecule?
Answer: 0.2 mg/dL

Question: What about the Ca (24 h) of the same molecule?
Answer: 11.4 mg/dL

Question: What about the Cl (24 h) of the same molecule?
Answer: 104.8 meq/L

Question: And the DBIL (24 h)?
Answer: 0.024 mg/dL

Question: What about the GLC (24 h) of the same molecule?
Answer: 187 mg/dL

Question: What about the IP (24 h) of the same molecule?
Answer: 8.7 mg/dL

Question: What about the K (24 h) of the same molecule?
Answer: 4.1 meq/L

Question: What about the LDH (24 h) of the same molecule?
Answer: 79.8 IU/L

Question: What about the Na (24 h) of the same molecule?
Answer: 142 meq/L

Question: What about the PL (24 h) of the same molecule?
Answer: 144.6 mg/dL

Question: What about the RALB (24 h) of the same molecule?
Answer: 2.7 g/dL

Question: And the TBIL (24 h)?
Answer: 0.034 mg/dL

Question: And the TC (24 h)?
Answer: 78 mg/dL

Question: And the TG (24 h)?
Answer: 75 mg/dL

Question: And the TP (24 h)?
Answer: 5.6 g/dL

Question: And the gamma-GTP (24 h)?
Answer: 1 IU/L
